Molecular target: Sigma non-opioid intracellular receptor 1 (Homo sapiens, UniProt Q99720)
Assay: Binding affinity for [3H]- pentazocine at sigma opioid receptor

Chain of Sigma non-opioid intracellular receptor 1 (Q99720 whole entry): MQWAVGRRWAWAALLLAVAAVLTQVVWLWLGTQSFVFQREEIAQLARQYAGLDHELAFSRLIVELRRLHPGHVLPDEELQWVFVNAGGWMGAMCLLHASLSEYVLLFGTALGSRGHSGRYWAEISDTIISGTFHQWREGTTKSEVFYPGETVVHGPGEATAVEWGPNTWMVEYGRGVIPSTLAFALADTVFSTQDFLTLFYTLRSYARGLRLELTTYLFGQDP

| Structure (SMILES) | Ki [nM] |
| --- | --- |
| CCC[C@H](C(=O)NCc1ccccc1)N1C(=O)[C@@H](CCCN)N(Cc2ccccc2)C1=O | 435 |
| NCCCCC[C@@H]1C(=O)N([C@H](CC2CCCCC2)C(N)=O)C(=O)N1Cc1ccccc1 | 3630 |
| NCCCC[C@@H]1C(=O)N([C@@H](CC2CCCCC2)C(N)=O)C(=O)N1Cc1ccccc1 | 254 |
| CC[C@H](C)[C@H](C(=O)NCc1ccccc1)N1C(=O)[C@@H](CCCCCN)N(Cc2ccccc2)C1=O | 4610 |
| CCC[C@H](C(=O)NCc1ccccc1)N1C(=O)[C@@H](CCCCCN)N(Cc2ccccc2)C1=O | 2420 |
| CC[C@@H](C)[C@H](C(=O)NCc1ccccc1)N1C(=O)[C@@H](CCCCN)N(Cc2ccccc2)C1=O | 125 |
| NCCCC[C@@H]1C(=O)N([C@H](CC2CCCCC2)C(N)=O)C(=O)N1Cc1ccccc1 | 189 |
| NCCC[C@H]1C(=O)N([C@H](CC2CCCCC2)C(N)=O)C(=O)N1Cc1ccccc1 | 406 |
| CCC[C@H](C(=O)NCc1ccccc1)N1C(=O)[C@H](CCCCN)N(Cc2ccccc2)C1=O | 64 |
| CC[C@H](C)[C@@H](C(=O)NCc1ccccc1)N1C(=O)[C@@H](CCCCN)N(Cc2ccccc2)C1=O | 62 |
| CC[C@H](C)[C@H](C(=O)NCc1ccccc1)N1C(=O)[C@@H](CCCN)N(Cc2ccccc2)C1=O | 333 |
| CCC[C@H](C(=O)NCc1ccccc1)N1C(=O)[C@@H](CCCCN)N(Cc2ccccc2)C1=O | 80 |

Reference: ChEMBL document CHEMBL1130940, “Combinatorial chemistry: from peptides and peptidomimetics to small organic and heterocyclic compounds” (Bioorg Med Chem Lett, 1998)
